The text below walks through data of patent US11034666B2, “Anti-inflammatory and antitumor 2-oxothiazoles and 2-oxothiophenes compounds” (Avexxin AS, priority 2013, dated 2021).

SMILES strings stand for the structures.

Series [1] relates to OA release in SW982 cells. Put plainly: Ex vivo cellular oleic acid (OA) release assay, IL-1β stimulated. The class given is cell-based. The conditions noted are these: Homo sapiens; SW982 synoviocytes; 4 h IL-1β stimulation; % inhibition at 10 pM oxothiazole (so in the source); read-out: OA release % Inhib. Here is the method:
The effect of the oxothiazoles synthesized on the release of AA and OA in synoviocytes was evaluated as previously described.^54 The percent inhibition of AA and OA was determined at a 10 μM inhibitor concentration, while for the determination of the IC50 value the inhibitors were tested in a 0-20 μM range after IL-1β stimulation for 4 h.
The human synovial sarcoma cell line SW982 was from ATCC (UK) and was used as a model system to monitor AA/OA release and activation of GIVA cPLA2. SW982 cells were passaged bi-weekly by routine trypsin detachment and kept in a sub-confluent state. The cells were maintained in Dulbecco's Modified Eagle Medium (DMEM) supplemented with 10% FBS, 0.1 mg/mL gentamicin and 0.3 mg/mL L-glutamine at 37° C. with 10% CO2. For AA release, 5*10^5 cells were seeded pr well in a 48-well per plate format. Experiments were performed at 3 days post-confluency following overnight serum deprivation in serum-free DMEM to ensure differentiation and synchronization of the cells.
AA and OA release was analyzed as previously described.^54 At 2 days post-confluency, SW982 cells were serum-starved and labelled overnight with ^3H-AA (0.4 μCi/ml) and ^14C-OA (0.067 μCi/ml) in serum-free DMEM. Prior to the addition of oxothiazoles, the cells were washed twice with PBS containing fBSA (2 mg/ml) and PBS in order to remove unincorporated radioactivity. Cells were pretreated (1 h) with oxothiazoles prior to IL-1β stimulation (10 ng/mL, 4 h). Following IL-1β stimulation, the supernatants were cleared of detached cells by centrifugation (13000 rpm, 5 min). The release of ^3H-AA and ^14C-OA from the cells was assessed by liquid scintillation counting (LS 6500 Multi-Purpose Scintillation Counter, Beckman Coulter, Inc (USA). Adherent cells were dissolved in 1N NaOH in order to determine incorporated ^3H-AA and ^14C-OA in the cells by liquid scintillation counting. In all experiments, DMSO was included for vehicle control ([…]0.05%).
Following treatments, cells were routinely observed by microscopy to ensure unaltered cell morphology, integrity and viability. The results are given as inhibition of released ^3H-AA and ^14C-OA in the supernatants relative to total ^3H-AA and ^14C-OA incorporated into the cells, from at least three independent experiments performed in triplicates.

Series [2] concerns PGE2. The series can be described thus: PGE2-assay (Tables 2 and 4). The conditions noted are these: Table 2; head says % inhibition, cells print μM. In kind it is cell-based. From the text:
Experimental procedures suitable for the formation and testing of these compounds can be found in WO2011/039365 as well as references cited therein.

For series [3], the system named is collagen-induced arthritis (CIA) mouse model. The series can be described thus: Prophylactic collagen-induced arthritis (CIA) study. In kind it is in vivo, male DBA/1 mice. Here is the method:
The prophylactic effect of Compound A on CIA model in male DBA/1 mice^57 following intraperitoneal (ip) administration, treatment starting 1 hour prior to the last immunization was studied. A study comparing naïve mice (healthy, non-CIA, non-treated), vehicle-treated mice (CIA with DMSO, ip) and CIA mice treated daily with Compound A (7.5 mg/kg, ip) or MTX (0.3 mg/kg, ip) was performed. CIA developed rapidly in mice immunized with CII. In the prophylactic study, a 100% incidence of CIA was observed by day 29 in CII-immunized mice, with maximum AI of 8.55 observed at 41 days post immunization. The AI and incidence of all groups increased in a time-dependent mode from day 25 to day 41.
Separate prophylactic and therapeutic efficacy studies of COMPOUND A were performed. Methotrexate (MTX) (Jiangsu Hengrui Medicine Co, #11041411), Enbrel (Boehringer Ingelheim Pharma KG, # F39487), and vehicle (DMSO 100%, Sigma Aldrich # D2650) were administered to all groups via intraperitoneal injection once daily at a dose volume of 2 mL/kg. Observations for morbidity, mortality, injury, and the availability of food and water were conducted twice daily for all animals. Clinical observations were conducted daily during the study. Body weights were measured and recorded prior to randomization and then once daily during the study. Food consumption was measured and recorded daily. Biopsies for mid-term histology analysis were obtained on Day 13 in the prophylactic study. Necropsy examinations were performed at study termination; plasma samples were collected, organ weights were recorded
For the prophylactic and the therapeutic studies, CIA was induced in male DBA/1 mice (except naïve mice) by immunization with 0.1 mL emulsion containing an equal volume of bovine type II collagen solution (2 mg/mL) and Freuds Complete Adjuvant at the tail base. The first injection was given on Day 0 and the second injection as booster was given on Day 21 (41-43). COMPOUND A, vehicle (DMSO) and MTX (0.3 mg/kg) were administered daily, Enbrel (25 mg/kg) was administrated twice a week. For the prophylactic study, treatment started one hour before the second collagen injection and continued for 21 days except for the histology groups that were sacrificed at Day 13 ([…]). For the therapeutic study, treatment started at Day 28 and continued for 14 days.
CIA Assessment and Treatment. CIA was assessed in mice by two blinded observers to measure paw swelling with a capacity measurement method on Day 0, Day 20, Day 22, Day 25, Day 27, Day 29, Day 32, Day 34, Day 36, Day 39 and Day 41 after the first injection. The occurrence of arthritis was observed by scoring all paws for severity of erythema and swelling, using a clinical score ranging from 0 (no swelling) to 4 (severe swelling and erythema). The physical condition of the animals was observed daily. Scores and overall evaluation of the histology group arms were performed in the same way as the main groups. However, the values measured were not included in the mean value calculations of the main groups. The YLS-7B Foot Volume Measuring Instrument (Huaibei China Bio Equipment) was used to measure the foot volume of mice. The occurrence of arthritis was observed by scoring all paws for severity of erythema and swelling, using a clinical score ranging from 0 (no swelling) to 4 (severe swelling and erythema), i.e. yielding maximum arthritic index (AI) score 16 (46).
Measurement of the histopathology and clinical observations. At the end of the studies, one hind foot of each mouse was collected for histopathology. The foot including the ankle was fixed in 10% neutral formalin. The ankle joints were decalcified, dehydrated, embedded in paraffin, sectioned and stained with routine hematoxylin-eosin. The sections were studied using light microscopy (10×10 and 20×10 magnifications). Arthritis damage (histological damage score) was evaluated and scored by an investigator blinded for the treatment regimen. […]

The mark [4] stands for this setting: hind paw, Compound A 7.5 mg/kg, MTX 0.3 mg/kg.

Turning to `CCCCCCCCCCCCOCC(=O)c1nc(CC(=O)OCC)cs1` [Compound X, Ethyl 2-(2-(2-(dodecyloxy)acetyl)thiazol-4-yl)acetate], the inhibition at 10 µM in series [1] is 0%.
`O=C(COc1ccccc1)c1nccs1` [Compound D, 2-Phenoxy-1-(thiazol-2-yl)ethanone] returned a melting point of 77 to 79 °C. In addition, the inhibition at 10 µM in series [1] is 20%.
Take `CCCCCCCCCCCCOCC(=O)c1nc(C(=O)OCC)cs1` [Compound W, Ethyl 2-(2-(dodecyloxy)acetyl)thiazole-4-carboxylate]: in series [1], the inhibition at 10 µM amounted to 0%.
On to `CCCCCCCCc1ccc(OCC(=O)c2nc(C(=O)OC)cs2)cc1` [Compound A, Methyl 2-(2-(4-octylphenoxy)acetyl)thiazole-4-carboxylate], for which the inhibition at 10 µM in series [1] was determined as 40%. In series [2], this compound had an IC50 of about 0.75 µM. Also, in series [3] (Days 32 to 41, Compound A 7.5 mg/kg ip daily, MTX 0.3 mg/kg ip daily), the “arthritic index (AI) in comparison to the CIA control group (in words)” value is “significantly reduced”. For the same compound, in series [3] (setting [4]), the “articular cavity and peripheral tissue inflammatory cell infiltration, histopathology vs vehicle (in words)” value is reported as “reduced”; the “capillary and synovial hyperplasia, histopathology vs vehicle (in words)” value is listed as “reduced”; the “cartilage damage, histopathology vs vehicle (in words)” value is “no significant effect”.
For the compound `CCCCCCCCc1ccc(OCC(=O)c2nc(CC(=O)OCC)cs2)cc1` [Compound Y, Ethyl 2-(2-(2-(4-octylphenoxy)acetyl)thiazol-4-yl)acetate], the inhibition at 10 µM in series [1] was determined as 20%.
`O=C(COc1ccc(F)cc1)c1nccs1` [Compound C, 2-(4-Fluorophenoxy)-1-(thiazol-2-yl)ethanone] registered a melting point of 74 to 77 °C. Further, in series [1], the inhibition at 10 µM came to 25%.
With `O=C(COc1ccc(-c2ccccc2)cc1)c1nccs1` [Compound B, 2-(Biphenyl-4-yloxy)-1-(thiazol-2-yl)ethanone], the melting point was 130 to 133 °C. The inhibition at 10 µM in series [1] is 25%. The compound further returned an IC50 in series [2] of about 6 µM.
Take `CCCCCCCCc1ccc(OCC(=O)c2nccs2)cc1` [Compound T, 2-(4-Octylphenoxy)-1-(thiazol-2-yl)ethanone]: in series [1], the inhibition at 10 µM worked out at 0%.
